For one test, the system named is LasR and RhlR. In words: Receptor specific reporter assays for LasR and RhlR activity (stated in words). The class given is cell-based, P. aeruginosa. From the text:
wherein R may be H or OH, and two or more of the R substituents of a given compound are OH; R′ is H or OH; and R″ is H or OH. […] A variety of compounds were obtained and tested for activity (e.g., inhibition of receptor specific reporter assays for LasR and RhlR activity).
(§1) A two plasmid E. coli reporter system was constructed, in which LasR or RhlR was expressed under an arabinose inducible promoter (e.g., LasR or RhlR was cloned into a pBAD-A vector and expressed upon addition of arabinose) in the presence of a LasR-dependent or RhlR-dependent promoter fused to luciferase (e.g., cloned into a pCS26 vector). Upon the addition of arabinose and in the presence of AI, LasR or RhlR were expressed, formed a complex with the cognate AI, underwent dimerization, and activated transcription of the reporter construct. All potential inhibitors were tested at 100 μM. The percent activity was reported relative to wild-type (100%).
A general note: In a reporter assay the amount or activity of a reporter protein is the signal.

Test [1] deals with Wild-type P. aeruginosa pyocyanin production. In words: Pyocyanin virulence factor production. The class given is cell-based. To be noted: 100 μM overnight, back diluted, grown 18 hrs with inhibitor. How it is done: FIG. 6. QS inhibitors reduce the level of virulence factor production in P. aeruginosa. The ability of the small molecule inhibitors to reduce virulence factor production by monitoring pyocyanin production was assessed.
The ability of the small molecule QS inhibitors to reduce virulence factor production by monitoring production of pyocyanin as a representative virulence factor was assessed. Wild-type P. aeruginosa was incubated with the indicated molecules at 100 μM overnight, back diluted, and grown for 18 hrs in the presence of QS inhibitor.
By varying the concentration of QS inhibitors, dose dependence curves were generated.

Another test deals with T1, RhlR (Pseudomonas aeruginosa, UniProt P54292).
T1 construct: expressed in transfected cells; host or cells: E. coli TOP10 carrying pBAD-A 6xHIS-rhlR and pCS26 prhlA-luxCDABE
Description: Two plasmid E. coli RhlR reporter (luciferase). The class given is cell-based, P. aeruginosa. The following applies: read-out: Percent Activity (RhlR reporter).
From the text: as §1
(§2) A sample experimental protocol for the RhlR reporter (see, e.g., Table 5A2) or for the LasR reporter (see, e.g., Table 5A1).
For the RhlR reporter, strains were re-streaked on LB+appropriate antibiotic before each experiment and grown overnight at 37° C. Three colonies were picked and a 3 mL overnight culture in LB+appropriate antibiotic was started. The culture was grown overnight at 37° C. The overnight culture was back-diluted 1:1000 into fresh LB+appropriate antibiotic in an appropriate volume, depending on the number of plates being screened. Each well in a 384 well plate received about 20 μL of culture. An additional 25 mL of culture was reserved for priming the plate filler. The culture was grown at 37° C. until OD600˜0.5, which took about 4 hrs. A 384-well plate was prepared. Stock concentrations of molecules (e.g., small molecule inhibitors) were 10 mM.
For a 10-point dose response for the RhlR reporter, a 1:3 dilution of molecule:DMSO (333 μL of stock molecule, 667 μL of DMSO using a 1 mL pipetteman) was used for accurate dispensing by the robot dispenser. Upon a prompt by the software, the appropriate concentration of each molecule was added. Each well was normalized with a DMSO standard to bring the total % volume of DMSO up to 1% using the robot. Plates were set aside with dispensed drugs until the cells were ready. Once the cells reached an OD600 of 0.5, an appropriate amount of cell culture was dispensed for screening into an Erlenmeyer flask. (Extra culture was saved for a negative control.) Arabinose was added to 0.1% final concentration (1:1000 dilution from stock solution), and AI was added to 10 μM (ED75) from a 10 mM stock. The components of the flask were mixed together by swirling. As mentioned previously, other concentrations of AIs may be suitable, e.g., the concentrations may be in the range of 2 uM to 100 uM, from 10 uM to 100 uM or from 2 uM to 10 uM. In some embodiments, 2 nM of 3-O—C12-HSL (for LasR) and 10 uM of C4-HSL (for RhlR) were used.
(§3) A clean plate was filled with water, 70% ethanol, LB, and primed with cultured cells to ensure that initial dispensing led to the appropriate volume of cells being added to the wells. 20 μL of this solution was dispensed into appropriate wells in a 384-well plate that contained small molecule antagonists. 20 μL of this solution was dispensed into wells intended for a positive control that contain only DMSO. To the culture that was saved for negative control, arabinose was added to 0.1%. An equal volume of DMSO was added to the culture, relative to the amount of AI added to the other culture. 20 μL of culture was dispensed into wells intended for a negative control that contained only DMSO and no small molecule QS inhibitors. Plates were incubated at 30° C. in the plate shaker. Plates were read using a 384 LUM/OD 600 setting on the plate reader after 4 hours of induction.
For data analysis, the average and standard deviation for each of the control groups were determined. In a screen, for each data point, the number of standard deviations from the mean was determined to determine if the inhibitor was a “hit”. In a dose response curve, for each data point, the percent inhibition was determined: 1−(X/M), where X=single data point and M=is the mean of the AI only control group. […]

For test [2], the target named is T2, LasR (Pseudomonas aeruginosa, UniProt P25084).
T2 construct: expressed in transfected cells; host or cells: E. coli TOP10 carrying pBAD-A 6xHIS-lasR and pCS26 plasB-luxCDABE
Description: Two plasmid E. coli LasR reporter (luciferase). The following applies: read-out: Percent Activity (LasR reporter). The class given is cell-based, P. aeruginosa.
From the text: as §1, §2, §3
For data analysis, the average and standard deviation for each of the control groups were determined. In a screen, for each data point, the number of standard deviations from the mean was determined to determine if the inhibitor was a “hit”. In a dose response curve, for each data point, the percent inhibition was determined: 1−(X/M), where X=single data point and M=is the mean of the AI only control group. The dose response curve was then plotted as a function of % inhibition (y) v. [inhibitor] on a log scale (x).

In test [3] the target is T2, LasR. In words: 10-point autoinducer dose response on LasR reporter with QS inhibitor (competition). The class given is cell-based, P. aeruginosa. The following applies: inhibitor at 100 μM; increasing concentrations of AI. How it is done: FIG. 4. QS inhibitors bind non-competitively to LasR. A 10-point dose response curve with increasing concentrations of autoinducer 3-O—C12-HSL (AI) was generated for a variety of QS small molecule inhibitors. In this figure, curve C12 (filled circle) corresponds to the absence of inhibitor. […] Instead, the inhibitors bind elsewhere on LasR to prevent LasR-dependent transcription.
Using known molecular biology techniques, assays were performed to determine whether binding of the small molecule QS inhibitors and the AIs occurred by a competitive or by another inhibitory mechanism (see, e.g., FIG. 4).
Thus, a 10-point dose response curve with concentrations of AI ranging from 10 pM to 5 nM was generated for a variety of QS small molecule inhibitors. Curve C12 (dotted filled line) corresponds to the absence of inhibitor. […] Instead, the inhibitors bind elsewhere on LasR to prevent LasR-dependent transcription.

T2 sequence (P25084 whole entry): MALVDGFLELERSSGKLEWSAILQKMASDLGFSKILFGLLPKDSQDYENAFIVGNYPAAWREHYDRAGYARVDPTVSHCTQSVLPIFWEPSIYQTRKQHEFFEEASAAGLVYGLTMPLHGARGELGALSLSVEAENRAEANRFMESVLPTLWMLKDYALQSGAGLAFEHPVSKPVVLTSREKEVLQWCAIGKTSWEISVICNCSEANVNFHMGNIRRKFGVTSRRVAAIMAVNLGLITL
T1 sequence (P54292 whole entry): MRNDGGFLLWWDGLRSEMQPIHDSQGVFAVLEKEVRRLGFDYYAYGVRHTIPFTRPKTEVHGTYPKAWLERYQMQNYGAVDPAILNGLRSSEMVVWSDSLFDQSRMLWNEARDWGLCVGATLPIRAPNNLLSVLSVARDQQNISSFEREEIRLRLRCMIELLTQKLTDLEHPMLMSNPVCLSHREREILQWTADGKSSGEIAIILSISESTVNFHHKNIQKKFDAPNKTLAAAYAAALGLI

Turning to `O=c1cc(-c2ccccc2)oc2cc(O)c(O)c(O)c12` [Molecule 46, Baicalein], the “activity (inhibition of receptor specific reporter assays for LasR and RhlR activity)” value in the test with LasR and RhlR is “inhibit both LasR and RhlR”. The pyocyanin production entry in test [1] is reported as “inhibit pyocyanin to varying degrees”. In addition, the remaining activity at 100 µM at RhlR worked out at 57.4%; at LasR [2] it was 46.7%. Moreover, the “competition with autoinducer 3-O—C12-HSL for LasR” value at LasR [3] is “did not compete”.

The values are drawn from US20190307818A1, “NOVEL ANTIMICROBIAL COMPOSITIONS AND METHODS OF USE” (priority 2016, published 2019).
